For data set [1], the target named is Focal adhesion kinase 1 (Homo sapiens, UniProt Q05397). The experiment in a line: Inhibition of FAK (unknown origin) by HTRF assay.
In data set [2] the target is Cytochrome P450 2D6 (Homo sapiens, UniProt P10635). The experiment in a line: Inhibition of CYP2D6 in human liver microsomes in presence of NADPH by LC-MS/MS analysis. Type of data set: ADME, Microsome. Background: Liver microsomes are vesicles of endoplasmic reticulum, rich in cytochrome P450 enzymes.
Data set [3] addresses T1, Cytochrome P450 1A2 (Homo sapiens, UniProt P05177).
T1 sequence (P05177 whole entry): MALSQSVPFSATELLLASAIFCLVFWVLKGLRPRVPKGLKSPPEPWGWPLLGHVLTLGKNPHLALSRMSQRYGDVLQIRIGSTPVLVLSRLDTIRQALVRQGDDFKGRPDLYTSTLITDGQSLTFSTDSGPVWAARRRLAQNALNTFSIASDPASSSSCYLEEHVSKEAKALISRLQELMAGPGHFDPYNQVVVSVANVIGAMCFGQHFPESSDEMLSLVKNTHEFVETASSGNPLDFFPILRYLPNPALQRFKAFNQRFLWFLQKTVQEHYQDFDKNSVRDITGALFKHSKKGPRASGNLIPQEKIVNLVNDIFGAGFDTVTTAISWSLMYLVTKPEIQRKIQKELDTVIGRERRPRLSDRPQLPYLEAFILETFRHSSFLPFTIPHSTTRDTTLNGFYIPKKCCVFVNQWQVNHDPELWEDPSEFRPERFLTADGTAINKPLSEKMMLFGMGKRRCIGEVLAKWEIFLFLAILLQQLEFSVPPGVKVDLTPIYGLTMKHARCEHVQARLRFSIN
The experiment in a line: Inhibition of CYP1A2 in human liver microsomes in presence of NADPH by LC-MS/MS analysis. Type of data set: ADME, Microsome.

For data set [4], the target named is Cytochrome P450 2C9 (Homo sapiens, UniProt P11712). Nature of the data set: Inhibition of CYP2C9 in human liver microsomes in presence of NADPH by LC-MS/MS analysis. Type of data set: ADME, Microsome.
Data set [5] concerns the target Cytochrome P450 2C19 (Homo sapiens, UniProt P33261). The experiment in a line: Inhibition of CYP2C19 in human liver microsomes in presence of NADPH by LC-MS/MS analysis. Type of data set: ADME, Microsome.
In data set [6] the target is Cytochrome P450 3A4 (Homo sapiens, UniProt P08684). The experiment in a line: Inhibition of CYP3A4 in human liver microsomes in presence of NADPH by LC-MS/MS analysis. Type of data set: ADME, Microsome.
Data set [7] relates to SK-OV-3. Nature of the data set: Antitumor activity against human SK-OV-3 cells xenografted in mouse model assessed as tumor growth inhibition at 25 mg/kg administered twice daily for 5 days and measured after 2 days break relative to control. Type of data set: functional. The settings on record: SK-OV-3, 168 h, time 7 day, read-out: TGI.
In data set [8] the test system is SK-OV-3. Nature of the data set: Antitumor activity against human SK-OV-3 cells xenografted in mouse model assessed as tumor growth inhibition at 25 mg/kg co-administered with paclitaxel as twice daily dose for 5 days and measured after 2 days break relative to control. The settings on record: SK-OV-3, 168 h, read-out: TGI. (A xenograft is tissue or cells of one species grown in another, often human tumour cells in immunodeficient mice.)

Data set [9] has as its system A549. Nature of the data set: Antitumor activity against human A549 cells xenografted in mouse model assessed as tumor growth inhibition at 50 mg/kg, po administered for 5 days and measured after 2 days relative to control. The settings on record: 168 h, read-out: TGI.
Data set [10] in a line: in vitro. The settings on record: human, liver microsomes.
Description: Metabolic stability in human liver microsomes assessed as intrinsic clearance preincubated for 5 mins followed by NADPH addition and measured after 60 mins by LC-MS/MS analysis
In data set [11] the test system is SK-OV-3. Nature of the data set: Antitumor activity against human SK-OV-3 cells xenografted in mouse model assessed as tumor growth inhibition at 4 mg/kg, ip administered as weekly dose relative to control. The note with it: read-out: TGI. Type of data set: functional.

pIC50: −log10 of the molar value.

What is called pIC50 is the IC50 on a negative log10 scale, so that one unit is a factor of ten. One may read the microsomal CLint as a measure of how fast metabolising enzymes remove a compound, apart from limits set by blood flow. Read a low microsomal CLint as greater metabolic stability.

Cytochrome P450 2D6, sequence (P10635 whole entry): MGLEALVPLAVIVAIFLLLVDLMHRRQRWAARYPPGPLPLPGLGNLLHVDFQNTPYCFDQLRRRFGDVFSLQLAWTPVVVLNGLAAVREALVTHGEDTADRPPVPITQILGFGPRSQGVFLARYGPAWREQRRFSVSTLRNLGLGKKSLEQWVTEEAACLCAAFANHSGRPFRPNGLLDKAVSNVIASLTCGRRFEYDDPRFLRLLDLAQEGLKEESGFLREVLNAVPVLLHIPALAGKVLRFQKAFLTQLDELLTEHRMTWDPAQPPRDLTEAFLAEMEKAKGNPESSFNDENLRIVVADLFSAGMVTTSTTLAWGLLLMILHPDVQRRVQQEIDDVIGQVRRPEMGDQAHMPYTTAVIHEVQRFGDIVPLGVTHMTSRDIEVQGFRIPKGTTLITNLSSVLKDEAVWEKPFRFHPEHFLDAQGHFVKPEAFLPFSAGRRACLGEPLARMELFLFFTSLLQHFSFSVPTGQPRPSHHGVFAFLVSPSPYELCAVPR
Focal adhesion kinase 1, sequence (Q05397 whole entry): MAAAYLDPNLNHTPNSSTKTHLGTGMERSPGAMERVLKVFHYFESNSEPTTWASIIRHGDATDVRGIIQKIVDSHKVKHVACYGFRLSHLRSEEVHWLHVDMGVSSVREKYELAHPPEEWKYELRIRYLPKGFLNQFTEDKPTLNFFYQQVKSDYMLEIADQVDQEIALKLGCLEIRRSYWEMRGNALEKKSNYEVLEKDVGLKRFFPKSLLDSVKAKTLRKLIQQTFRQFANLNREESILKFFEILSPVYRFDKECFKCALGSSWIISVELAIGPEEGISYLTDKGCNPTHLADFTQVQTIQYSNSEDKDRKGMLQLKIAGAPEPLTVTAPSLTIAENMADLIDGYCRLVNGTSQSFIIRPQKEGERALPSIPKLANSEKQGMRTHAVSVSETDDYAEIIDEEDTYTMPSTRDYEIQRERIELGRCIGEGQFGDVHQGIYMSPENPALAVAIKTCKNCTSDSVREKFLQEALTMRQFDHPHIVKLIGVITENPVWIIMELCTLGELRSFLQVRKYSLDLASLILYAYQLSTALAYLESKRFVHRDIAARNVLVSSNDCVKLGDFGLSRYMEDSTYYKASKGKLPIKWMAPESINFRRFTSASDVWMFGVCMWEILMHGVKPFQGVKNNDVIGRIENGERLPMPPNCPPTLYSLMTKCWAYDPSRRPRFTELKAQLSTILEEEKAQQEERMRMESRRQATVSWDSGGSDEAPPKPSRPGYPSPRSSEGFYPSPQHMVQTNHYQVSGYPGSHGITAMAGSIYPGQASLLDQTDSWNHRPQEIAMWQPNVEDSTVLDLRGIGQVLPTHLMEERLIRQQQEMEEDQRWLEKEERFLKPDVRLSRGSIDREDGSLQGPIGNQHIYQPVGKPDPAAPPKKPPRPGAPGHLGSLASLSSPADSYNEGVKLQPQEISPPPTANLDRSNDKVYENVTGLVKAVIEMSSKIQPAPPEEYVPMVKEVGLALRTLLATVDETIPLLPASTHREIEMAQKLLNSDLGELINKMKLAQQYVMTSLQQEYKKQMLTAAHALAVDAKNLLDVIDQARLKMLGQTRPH
Cytochrome P450 3A4, sequence (P08684 whole entry): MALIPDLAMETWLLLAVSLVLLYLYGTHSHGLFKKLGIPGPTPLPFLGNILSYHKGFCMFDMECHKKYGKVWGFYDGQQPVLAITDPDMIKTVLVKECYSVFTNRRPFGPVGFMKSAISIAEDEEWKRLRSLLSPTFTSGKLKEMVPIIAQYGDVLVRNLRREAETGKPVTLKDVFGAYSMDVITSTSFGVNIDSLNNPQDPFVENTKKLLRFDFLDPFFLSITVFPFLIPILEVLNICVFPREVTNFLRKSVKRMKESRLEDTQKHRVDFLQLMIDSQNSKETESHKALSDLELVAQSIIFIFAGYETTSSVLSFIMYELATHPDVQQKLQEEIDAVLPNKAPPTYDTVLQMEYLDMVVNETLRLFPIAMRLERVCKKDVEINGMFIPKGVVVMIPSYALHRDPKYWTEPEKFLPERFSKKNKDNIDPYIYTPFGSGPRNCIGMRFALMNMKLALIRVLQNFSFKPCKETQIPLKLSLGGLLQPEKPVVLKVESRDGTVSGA
Cytochrome P450 2C19, sequence (P33261 whole entry): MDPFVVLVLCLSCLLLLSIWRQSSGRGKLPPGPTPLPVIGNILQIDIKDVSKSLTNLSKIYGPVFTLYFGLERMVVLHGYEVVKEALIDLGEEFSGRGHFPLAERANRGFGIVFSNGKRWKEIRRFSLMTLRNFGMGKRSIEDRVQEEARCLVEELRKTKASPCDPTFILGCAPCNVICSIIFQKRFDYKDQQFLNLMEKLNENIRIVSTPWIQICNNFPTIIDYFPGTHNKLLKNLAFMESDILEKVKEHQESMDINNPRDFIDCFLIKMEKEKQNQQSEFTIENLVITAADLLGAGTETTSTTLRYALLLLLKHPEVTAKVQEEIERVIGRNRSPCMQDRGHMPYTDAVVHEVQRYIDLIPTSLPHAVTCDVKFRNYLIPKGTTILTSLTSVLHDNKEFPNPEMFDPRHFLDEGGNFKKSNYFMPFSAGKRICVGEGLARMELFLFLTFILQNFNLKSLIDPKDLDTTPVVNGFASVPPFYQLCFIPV
Cytochrome P450 2C9, sequence (P11712 whole entry): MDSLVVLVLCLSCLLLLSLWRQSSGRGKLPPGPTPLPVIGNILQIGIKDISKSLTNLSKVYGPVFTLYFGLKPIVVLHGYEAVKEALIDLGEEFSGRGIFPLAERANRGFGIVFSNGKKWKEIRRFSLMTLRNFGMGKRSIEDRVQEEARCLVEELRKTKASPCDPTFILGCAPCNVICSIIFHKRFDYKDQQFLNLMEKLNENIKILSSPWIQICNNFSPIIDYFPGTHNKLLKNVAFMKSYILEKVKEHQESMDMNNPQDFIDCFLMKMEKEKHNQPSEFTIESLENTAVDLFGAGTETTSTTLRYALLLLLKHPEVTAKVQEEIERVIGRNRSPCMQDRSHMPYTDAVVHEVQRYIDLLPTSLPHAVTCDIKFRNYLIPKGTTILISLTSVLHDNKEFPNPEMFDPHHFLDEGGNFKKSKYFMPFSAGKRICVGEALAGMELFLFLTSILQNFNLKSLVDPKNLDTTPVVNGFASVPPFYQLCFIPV

As for `CC(=O)Nc1ccc(Nc2nc(Nc3ccc(NC(=O)CCNC(=O)c4ccc(F)nc4)cc3)ncc2Br)c(NC(C)=O)c1`, the pIC50 in [1] is 7.95.
With `CNC(=O)c1ccccc1Nc1nc(Nc2ccc(OCCF)cc2)ncc1Br`, the pIC50 is less than 4.30 in data set [2]; 4.58 in data set [3]; 4.65 in data set [4]; 4.44 in [5]; less than 4.30 in data set [6].
Consider `CNC(=O)c1ccc(Nc2ncc(C(F)(F)F)c(NCc3nccnc3N(C)S(C)(=O)=O)n2)cc1` [DEFACTINIB], for which the results for the inhibition in vivo at 25 mg/kg in data set [7] and in [8] were 53.9% and 74.7%, respectively. For the same compound, in data set [9], the inhibition in vivo at 50 mg/kg amounted to 40.7%.
`O=C(O)Cc1ccccc1Nc1c(Cl)cccc1Cl` [DICLOFENAC] had a microsomal CLint at 1 h in data set [10] of 232 µL/min/mg.
Turning to `C#Cc1cccc(Nc2ncnc3cc(OCCOC)c(OCCOC)cc23)c1` [ERLOTINIB], the inhibition in vivo at 50 mg/kg in data set [9] was found to be 47.4%.
As for `CC(=O)O[C@H]1C(=O)[C@@]2(C)[C@H]([C@H](OC(=O)c3ccccc3)[C@]3(O)C[C@H](OC(=O)[C@H](O)[C@@H](NC(=O)c4ccccc4)c4ccccc4)C(C)=C1C3(C)C)[C@]1(OC(C)=O)CO[C@@H]1C[C@@H]2O` [PACLITAXEL], the inhibition in vivo at 4 mg/kg in data set [11] is 55.3%.
